Measurements reported in PMC9182199, “Borylated 2,3,4,5-Tetrachlorophthalimide and Their 2,3,4,5-Tetrachlorobenzamide Analogues: Synthesis, Their Glycosidase Inhibition and Anticancer Properties in View to Boron Neutron Capture Therapy” (Molecules, 2022).

Columns and labels:
[1] = tested on: bovine kidney N-acetyl-β-glucosaminidase; experiment: Glycosidase inhibition, laboratory 2: N-acetyl-β-glucosaminidase; format: biochemical; settings: water
Protocol: (§1) All enzymes and para-nitrophenyl substrates were purchased from Sigma. Enzymes were assayed at 27 °C in 0.1 M citric acid/0.2 M disodium hydrogen phosphate buffers at the optimum pH for the enzyme. The incubation mixture consisted of 10 μL enzyme solution, 10 μL of 1 mg/mL aqueous solution of extract and 50 μL of the appropriate 5 mM para-nitrophenyl substrate made up in buffer at the optimum pH for the enzyme. The reactions were stopped by addition of 70 μL 0.4 M glycine (pH 10.4) during the exponential phase of the reaction, which had been determined at the beginning using uninhibited assays in which water replaced inhibitor. Final absorbances were read at 405 nm using a Versamax microplate reader (Molecular Devices). Assays were carried out in triplicate, and the values given are means of the three replicates per assay. All reactions run in water.

[2] = biological target: rice α-glucosidase (Oryza sativa subsp. japonica, UniProt Q653V7); experiment: Glycosidase inhibition, laboratory 1: rice α-glucosidase; format: biochemical; settings: methanol
rice α-glucosidase, sequence (Q653V7 34-885): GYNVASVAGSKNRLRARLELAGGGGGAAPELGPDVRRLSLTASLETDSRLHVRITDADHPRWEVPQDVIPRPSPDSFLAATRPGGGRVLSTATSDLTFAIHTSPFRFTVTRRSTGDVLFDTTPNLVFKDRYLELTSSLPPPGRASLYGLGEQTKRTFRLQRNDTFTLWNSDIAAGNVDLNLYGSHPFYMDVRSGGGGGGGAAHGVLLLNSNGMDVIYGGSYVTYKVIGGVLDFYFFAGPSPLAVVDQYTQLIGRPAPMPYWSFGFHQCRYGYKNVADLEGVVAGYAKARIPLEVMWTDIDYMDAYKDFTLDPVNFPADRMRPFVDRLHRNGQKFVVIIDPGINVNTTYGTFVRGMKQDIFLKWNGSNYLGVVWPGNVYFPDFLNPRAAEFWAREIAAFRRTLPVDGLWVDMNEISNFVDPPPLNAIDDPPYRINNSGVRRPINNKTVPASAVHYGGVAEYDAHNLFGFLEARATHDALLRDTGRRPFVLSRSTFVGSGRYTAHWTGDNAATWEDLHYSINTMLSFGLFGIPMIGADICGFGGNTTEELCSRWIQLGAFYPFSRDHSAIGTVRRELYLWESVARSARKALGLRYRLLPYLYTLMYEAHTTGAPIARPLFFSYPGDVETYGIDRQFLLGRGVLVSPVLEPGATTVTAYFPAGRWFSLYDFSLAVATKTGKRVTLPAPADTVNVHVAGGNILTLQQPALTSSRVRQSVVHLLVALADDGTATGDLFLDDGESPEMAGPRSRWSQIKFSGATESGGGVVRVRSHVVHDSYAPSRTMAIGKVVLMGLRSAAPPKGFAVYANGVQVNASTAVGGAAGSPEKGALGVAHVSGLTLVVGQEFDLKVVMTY

[3] = Appearance of the 1 mg/mL aqueous solution tested; format: physicochemical; settings: 1 mg/mL in water
[4] = tested on: rat intestinal maltase α-glucosidase; experiment: Glycosidase inhibition, laboratory 1: rat intestinal maltase; format: biochemical; settings: methanol; for IC50: rat intestinal maltase α-glucosidase
Description: (§2) The enzymes α-glucosidase (from yeast), β-glucosidases (from almond and bovine liver), α-galactosidase (from coffee beans), β-galactosidase (from bovine liver), α-mannosidase (from Jack bean), β-mannosidase (from snail), α-L-rhamnosidase (from Penicillium decumbens), α-L-fucosidase (from bovine kidney), trehalase (from porcine kidney), β-glucuronidases (from E. coli and bovine liver), amyloglucosidase (from A. niger), para-nitrophenyl glycosides, and various disaccharides were purchased from Sigma-Aldrich Co (St Louis, MO, USA).
(§3) Brush border membranes were prepared from the rat small intestine according to the method of Kessler et al. and were assayed at pH 6.8 for rat intestinal maltase using maltose. For rat intestinal maltase, porcine kidney trehalase, and A. niger amyloglucosidase activities, the reaction mixture contained 25 mM maltose and the appropriate amount of enzyme, and the incubations were performed for 10–30 min at 37 °C. The reaction was stopped by heating at 100 °C for 3 min. After centrifugation (600× g; 10 min), the resulting reaction mixture was added to the Glucose CII-test Wako (Wako Pure Chemical Ind., Osaka, Japan). The absorbance at 505 nm was measured to determine the amount of the released D-glucose. Other glycosidase activities were determined using an appropriate para-nitrophenyl glycoside as substrate at the optimum pH of each enzyme. The reaction mixture contained 2 mM of the substrate and the appropriate amount of enzyme. The reaction was stopped by addition of 400 mM Na2CO3. The released para-nitrophenol was measured spectrometrically at 400 nm. All reactions run in methanol.

[5] = biological target: T1, yeast α-glucosidase (Saccharomyces cerevisiae, UniProt P53341); experiment: Glycosidase inhibition, laboratory 1: yeast α-glucosidase; format: biochemical; settings: methanol
T1 construct: purchased Sigma
T1 sequence (P53341 whole entry): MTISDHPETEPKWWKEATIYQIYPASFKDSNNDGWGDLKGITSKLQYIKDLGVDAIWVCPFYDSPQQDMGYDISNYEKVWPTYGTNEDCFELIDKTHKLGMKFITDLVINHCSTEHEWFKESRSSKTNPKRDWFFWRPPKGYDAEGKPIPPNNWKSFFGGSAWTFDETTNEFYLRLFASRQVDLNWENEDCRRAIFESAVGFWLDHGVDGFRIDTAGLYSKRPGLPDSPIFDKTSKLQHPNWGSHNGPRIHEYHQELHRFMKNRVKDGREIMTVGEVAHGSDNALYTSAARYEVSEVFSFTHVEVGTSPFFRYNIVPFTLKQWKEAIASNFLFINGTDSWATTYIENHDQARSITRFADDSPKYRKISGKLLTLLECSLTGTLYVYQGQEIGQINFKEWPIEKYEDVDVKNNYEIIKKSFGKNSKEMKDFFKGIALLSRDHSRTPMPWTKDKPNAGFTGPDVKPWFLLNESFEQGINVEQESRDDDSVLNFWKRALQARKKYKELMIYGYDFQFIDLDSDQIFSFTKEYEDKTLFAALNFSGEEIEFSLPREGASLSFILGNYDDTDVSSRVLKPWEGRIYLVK
Description: as §2, §3

[6] = tested on: bovine liver β-glucuronidase; experiment: Glycosidase inhibition, laboratory 1: bovine liver β-glucuronidase; format: biochemical; settings: methanol
Description: as §2, §3

[7] = tested on: porcine kidney trehalase; experiment: Glycosidase inhibition, laboratory 1: trehalase; format: biochemical; settings: methanol
Description: as §2, §3

[8] = tested on: SJ-G2; experiment: MTT cell growth inhibition: SJ-G2; format: cell-based; settings: SJ-G2 glioblastoma, 72 h; for inhibition at 25 µM: read-out: Percentage (%) Cell Growth Inhibition in response to 25 µM of Drug
Protocol: (§4) All test agents were prepared as stock solutions (20 mM) in dimethyl sulfoxide (DMSO) and stored at −20 °C. Cell lines used in the study included HT29 (colorectal carcinoma); U87, SJ-G2, (glioblastoma); MCF-7, (breast carcinoma); A2780 (ovarian carcinoma); H460 (lung carcinoma); A431 (skin carcinoma); Du145 (prostate carcinoma); BE2-C (neuroblastoma); MiaPaCa-2 (pancreatic carcinoma); and SMA560 (spontaneous murine astrocytoma), together with the one non-tumour-derived normal breast cell line (MCF10A). All cell lines were incubated in a humidified atmosphere 5% CO2 at 37 °C. The cancer cell lines were maintained in Dulbecco’s modified Eagle’s medium (DMEM; Sigma, Australia) supplemented with foetal bovine serum (10%), sodium pyruvate (10 mM), penicillin (100 IUmL^−1), streptomycin (100 µg mL^−1) and L-glutamine (2 mM).
(§5) Growth inhibition was determined by plating cells in duplicate in medium (100 µL) at a density of 2500–4000 cells per well in 96-well plates. On day 0 (24 h after plating), when the cells were in logarithmic growth, medium (100 µL) with or without the test agent was added to each well. After 72 h drug exposure, growth inhibitory effects were evaluated using the MTT (3-(4,5-dimethyltiazol-2-yl)-2,5-diphenyltetrazolium bromide) assay and absorbance read at 540 nm. The percentage growth inhibition was calculated at a fixed concentration of 25 µM, based on the difference between the optical density values on day 0 and those at the end of drug exposure. Each data point is the mean ± the standard error of the mean (SEM) calculated from three replicates which were performed on separate occasions and separate cell line passages.

[9] = tested on: U87; experiment: MTT cell growth inhibition: U87; format: cell-based; settings: U87 glioblastoma; for GI50 / inhibition at 25 µM: Homo sapiens, U-87 MG; for GI50: read-out: GI50 = Concentration (µM) that inhibits cell growth by 50%, dose response; for inhibition at 25 µM / Percentage (%) Cell Growth Inhibition in response to 25 µM of Drug: 72 h, MTT; for inhibition at 25 µM: read-out: Percentage (%) Cell Growth Inhibition in response to 25 µM of Drug
Protocol: as §4, §5

[10] = tested on: Penicillium decumbens α-L-rhamnosidase; experiment: Glycosidase inhibition, laboratory 1: α-L-rhamnosidase; format: biochemical; settings: methanol
Description: as §2, §3

[11] = tested on: bovine liver β-glucuronidase; experiment: Glycosidase inhibition, laboratory 2: bovine liver β-glucuronidase; format: biochemical; settings: water
Protocol: as §1

[12] = tested on: HT29; experiment: MTT cell growth inhibition: HT29; format: cell-based; settings: 72 h; for inhibition at 25 µM: Homo sapiens, HT-29, HT29 colon carcinoma, read-out: Percentage (%) Cell Growth Inhibition in response to 25 µM of Drug; for Percentage (%) Cell Growth Inhibition in response to 25 µM of Drug: HT29 colon carcinoma
Protocol: as §4, §5

[13] = tested on: bovine liver β-galactosidase; experiment: Glycosidase inhibition, laboratory 1: bovine liver β-galactosidase; format: biochemical; settings: methanol
Description: as §2, §3

Compound | % inhibition at ~400 μM [1] | Appearance of the 1 mg/mL Aqueous Solution Tested [3] | inhibition at 25 µM [8] | inhibition at 25 µM [9] | % inhibition at ~400 μM [11] | inhibition at 25 µM [12] | inhibition at 100 µM ([2]; 100 μM) | IC50 [4] | inhibition at 100 µM ([5]; 100 μM) | inhibition % at 100 μM [6] | inhibition % at 100 μM [7] | inhibition % at 100 μM [10] | IC50 [13] | inhibition % at 100 μM ([4]; rat intestinal maltase) | also measured
CC1(C)OB(c2ccccc2NC(=O)c2cc(Cl)c(Cl)c(Cl)c2Cl)OC1(C)C [ortho 5, 2,3,4,5-Tetrachloro-N-(2-(4,4,5,5-tetramethyl-1,3,2-dioxaborolan-2-yl)phenyl)benzamide] | 28.8% | some in solution with undissolved sediment | 92 ± 5% | 58 ± 5% | −3.5% | 98 ± 2% |  |  |  |  |  |  |  |  | inhibition at 10 µM ([2]; 10 μM): 0%; inhibition % at 10 μM ([4]; rat intestinal maltase, 10 μM): ^cNI ^d(3%); inhibition at 10 µM ([5]; 10 μM): 0%; inhibition % at 10 μM ([6]; 10 μM): ^cNI ^d (0%); inhibition % at 10 μM ([7]; 10 μM): ^cNI ^d (1.2%); GI50 [9]: 25 ± 2.6 µM; inhibition % at 10 μM ([10]; 10 μM): ^cNI ^d (0%); inhibition % at 10 μM ([13]; 10 μM): ^cNI ^d (0%)
CC1(C)OB(c2ccccc2CNC(=O)c2cc(Cl)c(Cl)c(Cl)c2Cl)OC1(C)C [ortho 8, 2,3,4,5-tetrachloro-N-(2-(4,4,5,5-tetramethyl-1,3,2-dioxaborolan-2-yl)benzyl)benzamide] | 28.3% | some in solution with undissolved sediment | < 0% | < 0% | −6.3% | 5 ± 10% | 0% | 305 µM | 0% | ^aNI ^b (16.3%) | ^aNI ^b (16.8%) | ^aNI ^b (6.2%) | 278 µM |  | 
N[C@@H](Cc1ccc(B(O)O)cc1)C(=O)O [^10B-BPA, reference compound] |  | some in solution with undissolved sediment |  |  |  |  |  |  |  | ^cNI ^d (0%) | ^cNI ^d (0%) | ^cNI ^d (0%) |  | ^cNI ^d (0%) | % inhibition at ~400 μM ([1]; 400 µM): 6.3%; inhibition % at 100 μM ([2]; 100 μM): ^cNI ^d(0%); inhibition % at 100 μM ([5]; 100 μM): ^cNI ^d (0%); Percentage (%) Cell Growth Inhibition in response to 25 µM of Drug [8]: 5 ± 10%; Percentage (%) Cell Growth Inhibition in response to 25 µM of Drug [9]: <0%; % inhibition at ~400 μM ([11]; 400 µM): −1%; Percentage (%) Cell Growth Inhibition in response to 25 µM of Drug [12]: 15 ± 4%; inhibition % at 100 μM [13]: ^cNI ^d (0%)
CC1(C)OB(c2cccc(NC(=O)c3cc(Cl)c(Cl)c(Cl)c3Cl)c2)OC1(C)C [meta 5, 2,3,4,5-tetrachloro-N-(3-(4,4,5,5-tetramethyl-1,3,2-dioxaborolan-2-yl)phenyl)benzamide] | 30.6% | some in solution with undissolved sediment | < 0% | < 0% | −5.7% | 10 ± 7% | 45.5% | 274 µM | 12.8% | ^aNI ^b (6.0%) | ^aNI ^b (0%) | ^aNI ^b (2.2%) | 213 µM |  | 
CC1(C)OB(c2ccc(CN3C(=O)c4c(Cl)c(Cl)c(Cl)c(Cl)c4C3=O)cc2)OC1(C)C [para 3, 4,5,6,7-Tetrachloro-2-(4-(4,4,5,5-tetramethyl-1,3,2-dioxaborolan-2-yl)benzyl)isoindoline-1,3-dione] | 8.3% | some in solution with undissolved sediment | > 100% | > 100% | 2.1% | 99 ± 2% | 5.6% |  | 0% | ^aNI ^b (1.0%) | ^aNI ^b (0%) | ^aNI ^b (0%) |  | ^aNI ^b (12.2%) | GI50 [9]: 4.2 ± 1 µM
Borocaptate sodium [BSH, reference compound] | 37.1% | in solution |  |  | 31.6% |  |  |  |  |  |  |  |  |  | inhibition % at 1000 μM ([2]; 1000 μM): ^aNI ^b(0%); inhibition % at 1000 μM ([4]; rat intestinal maltase, 1000 μM): ^aNI ^b(0%); inhibition % at 1000 μM ([5]; 1000 μM): ^aNI ^b(6.9%); inhibition % at 1000 μM ([6]; 1000 μM): ^aNI ^b (19.6%); inhibition % at 1000 μM ([7]; 1000 μM): ^aNI ^b (4.2%); Percentage (%) Cell Growth Inhibition in response to 25 µM of Drug [8]: 3 ± 8%; Percentage (%) Cell Growth Inhibition in response to 25 µM of Drug [9]: <0%; inhibition % at 1000 μM ([10]; 1000 μM): ^aNI ^b (0.2%); Percentage (%) Cell Growth Inhibition in response to 25 µM of Drug [12]: 3 ± 2%; inhibition % at 1000 μM ([13]; 1000 μM): ^aNI ^b (0%)
N[C@@H](Cc1ccc(B(O)O)cc1)C(=O)O [BPA, 4-borono-L-phenylalanine, reference compound] |  | some in solution with undissolved sediment | 5 ± 8% | < 0% |  | 14% |  |  |  | ^cNI ^d (7.4%) | ^cNI ^d (0%) | ^cNI ^d (0%) |  | ^cNI ^d(0%) | % inhibition at ~400 μM ([1]; 400 µM): 6.7%; % inhibition at ~400 μM ([11]; 400 µM): −0.7%; inhibition % at 100 μM [13]: ^cNI ^d (10.9%)
CC1(C)OB(c2ccc(NC(=O)c3cc(Cl)c(Cl)c(Cl)c3Cl)cc2)OC1(C)C [para 5, 2,3,4,5-tetrachloro-N-(4-(4,4,5,5-tetramethyl-1,3,2-dioxaborolan-2-yl)phenyl)benzamide] | 20.6% | some in solution with undissolved sediment | 28 ± 6% | 21 ± 16% | −2.2% | 69 ± 7% | 0% | 188 µM | 0% | ^aNI ^b (36.5%) | ^aNI ^b (0%) | ^aNI ^b (14.4%) | 333 µM |  | 
